Tested on: heterotopic GBM flank tumor model
Assay: Heterotopic xenograft flank tumor treatment with peptide
Format: in vivo, nude mice
Design: dose or concentration left out as unconfirmed
Details: flank tumors of mice intravenously administered peptide; compared with scrambled control polypeptide; FIG. 2
Experimental: In this Example, we tested the efficacy of the SBK2 peptide in treating primary human brain tumor xenografts. The studies were performed using an imaging dose of the SBK2 peptide probe in 3 sequential injections that were two days apart in a heterotopic GBM flank tumor model.
Human Gli36Δ5 glioblastoma cells constitutively over-express the vIII mutant forms of the EGFR gene (Tyminski E, Leroy S, Terada K, Finkelstein D M, Hyatt J L, Danks M K, Potter P M, Saeki Y, Chiocca E A (2005) Brain tumor oncolysis with replication-conditional herpes simplex virus type 1 expressing the prodrug-activating genes, CYP2B1 and secreted human intestinal carboxylesterase, in combination with cyclophosphamide and irinotecan. Cancer Res 65:6850-6857). Human LN-229 glioblastoma cells were obtained from American Type Culture Collection, Manassas, Va. Gli36Δ5 or LN-229 cells were harvested for flank implantation by trypsinization. […]
On each peptide treatment day, flank tumors were imaged using the Maestro FLEX In Vivo Imaging System. […] Tumors were measured through the skin using calipers; length, width and height of the tumors were recorded on each treatment day. On the day the animals were sacrificed, tumors were measured before removal (through the skin) and after removal.

GEGDDFNWEQVNTLTKPTSD [SBK2]
reduction in tumor volume: 50%
reduction in weight (flank tumor): 35%
